This is an account of results in ChEMBL document CHEMBL1151623, “Flavonoids from Brickellia glutinosa” (J Nat Prod, 1984).

Assay [1] deals with Aldo-keto reductase family 1 member B1 (Homo sapiens) (UniProt P15121). The assay can be described thus: Inhibition of aldose reductase at 1 uM.
For assay [2] the target is unchanged. The assay can be described thus: Inhibition of aldose reductase at 0.1 uM.

The structures appear in SMILES notation.

As a reminder, the inhibition is how much of the control response was suppressed. Lower therefore signals a response near the control. Consider `COc1c(-c2ccc(O)c(O)c2)oc2cc(O)cc(O)c2c1=O`, for which the inhibition in assay [1] worked out at 78%; in assay [2], 95%.

For `O=C1NC(=O)c2cccc3cccc1c23`, the results for the inhibition in assay [1] and in assay [2] were 44% and 92%, respectively.

On to `COc1cc2oc(-c3ccc(O)c(O)c3)c(OC)c(=O)c2c(O)c1O`, for which the inhibition in assay [1] was 71%; in assay [2], 97%.

For `COc1ccc(-c2oc3cc(O[C@@H]4O[C@H](CO)[C@@H](O)[C@H](O)[C@H]4O)c(OC)c(O)c3c(=O)c2OC)cc1O`, the inhibition is 0% in assay [1] and 47% in assay [2].

With `C[C@@H]1O[C@@H](Oc2c(-c3ccc(O)c(O)c3)oc3cc(O)cc(O)c3c2=O)[C@H](O)[C@H](O)[C@H]1O`, the inhibition in assay [1] was 82%; in assay [2], 91%.

With `COc1cc2oc(-c3ccc(O)c(O)c3)c(OC)c(=O)c2c(O)c1OC`, the inhibition is 63% in assay [1] and 88% in assay [2].

On to `COc1cc2oc(-c3ccc(O)cc3)c(OC)c(=O)c2c(O)c1OC`, for which the inhibition in assay [1] amounted to 21%; in assay [2], 64%.
